Measured values published in ChEMBL document CHEMBL1142341, “Vinyl ester-based cyclic peptide proteasome inhibitors” (Bioorg Med Chem Lett, 2008).
Residues, ends and D or L forms follow the SMILES beside them. *: point of attachment. X1 = CCOC(=O)/C=C/[C@H](CC(C)C)N*

assay: Half life in human plasma; type: ADME, cell-free

half-life, > 6 h:
CCOC(=O)/C=C/[C@H](CC(C)C)NC(=O)C[C@@H]1NC(=O)[C@H](CC(C)C)NC(=O)[C@H](CC(C)C)NC(=O)[C@H](Cc2ccccc2)NC1=O (cyclo(D(X1)FLL)), CCOC(=O)/C=C/[C@H](CC(C)C)NC(=O)C[C@@H]1NC(=O)[C@H](CO)NC(=O)[C@H](C(C)C)NC(=O)[C@H](Cc2ccccc2)NC1=O (cyclo(D(X1)FVS)), CCOC(=O)/C=C/[C@H](CC(C)C)NC(=O)CC[C@@H]1NC(=O)[C@H](CC(C)C)NC(=O)[C@H](CC(C)C)NC(=O)[C@H](Cc2ccccc2)NC1=O (cyclo(E(X1)FLL))
